Reference: patent US10676465B2, “GLP-1 receptor agonists and uses thereof” (Pfizer Inc., priority 2018, dated 2020)

Columns and labels:
human GLP-1R [1] = target: human GLP-1R (Homo sapiens, UniProt P43220, G168S); assay: CHO GLP-1R Clone H6 - Assay 1 (HTRF cAMP agonist assay); type: cell-based; conditions: for EC50: CHO GLP-1R Clone H6, cAMP HTRF, geometric mean; for Emax: CHO GLP-1R Clone H6, arithmetic mean, relative to saturating GLP-1 (1 μM)
human GLP-1R [2] = target: human GLP-1R (Homo sapiens (Human), UniProt P43220, L260F); assay: CHO GLP-1R Clone C6 - Assay 2 (HTRF cAMP agonist assay, low receptor density); conditions: for EC50: read-out: Assay 2 EC50, CHO GLP-1R Clone C6 (low receptor density), cAMP HTRF, geometric mean; for Emax: read-out: Assay 2 Emax (%), CHO GLP-1R Clone C6 (low receptor density), arithmetic mean, relative to saturating GLP-1 (1 μM)
Sequence of human GLP-1R (Homo sapiens (Human), UniProt P43220, L260F) (P43220 24-463 L260F): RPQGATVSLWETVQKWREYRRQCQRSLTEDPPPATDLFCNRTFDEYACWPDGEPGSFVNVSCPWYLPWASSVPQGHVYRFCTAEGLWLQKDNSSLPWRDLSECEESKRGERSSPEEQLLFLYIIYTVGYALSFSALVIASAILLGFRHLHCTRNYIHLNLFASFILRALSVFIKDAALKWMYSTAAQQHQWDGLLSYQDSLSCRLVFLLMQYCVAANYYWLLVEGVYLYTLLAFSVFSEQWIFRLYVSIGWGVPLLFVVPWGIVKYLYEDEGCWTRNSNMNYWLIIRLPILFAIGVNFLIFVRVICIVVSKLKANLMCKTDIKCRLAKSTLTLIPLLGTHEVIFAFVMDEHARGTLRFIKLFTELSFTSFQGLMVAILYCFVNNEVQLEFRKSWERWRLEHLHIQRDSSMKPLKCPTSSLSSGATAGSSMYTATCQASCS

Sequence of human GLP-1R (Homo sapiens, UniProt P43220, G168S) (P43220 24-463 G168S limits assumed): as the sequence (P43220 24-463 L260F) above, with G145S, F237L counted along it

| SMILES | EC50 (human GLP-1R [1]) [nM] | Emax (human GLP-1R [1]) [%] | EC50 (human GLP-1R [2]) [nM] | Emax (human GLP-1R [2]) [%] |
| --- | --- | --- | --- | --- |
| CN(C)C(=O)CCn1c(CN2CCC(c3cccc4c3OC(C)(c3ccc(Cl)cc3F)O4)CC2)nc2ccc(C(=O)O)cc21 (stereo not drawn) [Example 59, 2-({4-[2-(4-chloro-2-fluorophenyl)-2-methyl-1,3-benzodioxol-4-yl]piperidin-1-yl}methyl)-1-[3-(dimethylamino)-3-oxopropyl]-1H-benzimidazole-6-carboxylic acid] | 74 | 85 | 680 | 53 |
| Cn1cc(CCn2c(CN3CCC(c4cccc5c4OC(C)(c4ccc(Cl)cc4F)O5)CC3)nc3ccc(C(=O)O)cc32)nn1 (stereo not drawn) [Example 60, 2-({4-[2-(4-chloro-2-fluorophenyl)-2-methyl-1,3-benzodioxol-4-yl]piperidin-1-yl}methyl)-1-[2-(1-methyl-1H-1,2,3-triazol-4-yl)ethyl]-1H-benzimidazole-6-carboxylic acid] | 15 | 82 | 240 | 60 |
| Cc1nccn1CCn1c(CN2CCC(c3cccc4c3OC(C)(c3ccc(Cl)cc3F)O4)CC2)nc2ccc(C(=O)O)cc21 (stereo not drawn) [Example 62, 2-({4-[2-(4-chloro-2-fluorophenyl)-2-methyl-1,3-benzodioxol-4-yl]piperidin-1-yl}methyl)-1-[2-(2-methyl-1H-imidazol-1-yl)ethyl]-1H-benzimidazole-6-carboxylic acid] | 2.2 | 94 | 82 | 95 |
| Cn1cc(Cn2c(CN3CCC(c4cccc5c4OC(C)(c4ccc(Cl)cc4F)O5)CC3)nc3ccc(C(=O)O)cc32)nn1 (stereo not drawn) [Example 63, 2-({4-[2-(4-chloro-2-fluorophenyl)-2-methyl-1,3-benzodioxol-4-yl]piperidin-1-yl}methyl)-1-[(1-methyl-1H-1,2,3-triazol-4-yl)methyl]-1H-benzimidazole-6-carboxylic acid] | 5.2 | 91 | 66 | 96 |
| CC1(c2ccc(Cl)cc2F)Oc2cccc(C3CCN(Cc4nc5ccc(C(=O)O)cc5n4Cc4cccnc4)CC3)c2O1 (stereo not drawn) [Example 65, 2-({4-[2-(4-chloro-2-fluorophenyl)-2-methyl-1,3-benzodioxol-4-yl]piperidin-1-yl}methyl)-1-(pyridin-3-ylmethyl)-1H-benzimidazole-6-carboxylic acid] | 1.2 | 99 | 11 | 99 |
| COCc1cc(Cn2c(CN3CCC(c4cccc5c4OC(C)(c4ccc(Cl)cc4F)O5)CC3)nc3ccc(C(=O)O)cc32)[nH]n1 (stereo not drawn) [Example 68, 2-({4-[2-(4-chloro-2-fluorophenyl)-2-methyl-1,3-benzodioxol-4-yl]piperidin-1-yl}methyl)-1-{[3-(methoxymethyl)-1H-pyrazol-5-yl]methyl}-1H-benzimidazole-6-carboxylic acid] | 73 | 89 | 1200 | 94 |
| COCCn1cnnc1Cn1c(CN2CCC(c3cccc4c3OC(C)(c3ccc(Cl)cc3F)O4)CC2)nc2ccc(C(=O)O)cc21 (stereo not drawn) [Example 70, 2-({4-[2-(4-chloro-2-fluorophenyl)-2-methyl-1,3-benzodioxol-4-yl]piperidin-1-yl}methyl)-1-{[4-(2-methoxyethyl)-4H-1,2,4-triazol-3-yl]methyl}-1H-benzimidazole-6-carboxylic acid] | 2.8 | 100 | 97 | 100 |
| CN(CCn1c(CN2CCC(c3cccc4c3OC(C)(c3ccc(Cl)cc3F)O4)CC2)nc2ccc(C(=O)O)cc21)S(C)(=O)=O (stereo not drawn) [Example 71, 2-({4-[2-(4-chloro-2-fluorophenyl)-2-methyl-1,3-benzodioxol-4-yl]piperidin-1-yl}methyl)-1-{2-[methyl(methylsulfonyl)amino]ethyl}-1H-benzimidazole-6-carboxylic acid] | 6.8 | 80 | 74 | 80 |

Continued, values first:

| EC50 (human GLP-1R [1]) [nM] | Emax (human GLP-1R [1]) [%] | EC50 (human GLP-1R [2]) [nM] | Emax (human GLP-1R [2]) [%] | SMILES |
| --- | --- | --- | --- | --- |
| 4 | 98 | 23 | 88 | CC1(c2ccc(Cl)cc2F)Oc2cccc(C3CCN(Cc4nc5ccc(C(=O)O)cc5n4Cc4cocn4)CC3)c2O1 (stereo not drawn) [Example 58, 2-({4-[2-(4-chloro-2-fluorophenyl)-2-methyl-1,3-benzodioxol-4-yl]piperidin-1-yl}methyl)-1-(1,3-oxazol-4-ylmethyl)-1H-benzimidazole-6-carboxylic acid] |
| 10 | 79 | 240 | 85 | CC1(c2ccc(Cl)cc2F)Oc2cccc(C3CCN(Cc4nc5ccc(C(=O)O)cc5n4C4CCOC4)CC3)c2O1 (stereo not drawn) [Example 61, 2-({4-[2-(4-chloro-2-fluorophenyl)-2-methyl-1,3-benzodioxol-4-yl]piperidin-1-yl}methyl)-1-(tetrahydrofuran-3-yl)-1H-benzimidazole-6-carboxylic acid] |
| 9.2 | 94 | 91 | 80 | CC1(c2ccc(Cl)cc2F)Oc2cccc(C3CCN(Cc4nc5ccc(C(=O)O)cc5n4C[C@H]4CCCO4)CC3)c2O1 (stereo partly drawn) [Example 64, 2-({4-[2-(4-chloro-2-fluorophenyl)-2-methyl-1,3-benzodioxol-4-yl]piperidin-1-yl}methyl)-1-[(2R)-tetrahydrofuran-2-ylmethyl]-1H-benzimidazole-6-carboxylic acid] |
| 51 | 82 | 850 | 74 | CN(C)C(=O)Cn1c(CN2CCC(c3cccc4c3OC(C)(c3ccc(Cl)cc3F)O4)CC2)nc2ccc(C(=O)O)cc21 (stereo not drawn) [Example 66, 2-({4-[2-(4-chloro-2-fluorophenyl)-2-methyl-1,3-benzodioxol-4-yl]piperidin-1-yl}methyl)-1-[2-(dimethylamino)-2-oxoethyl]-1H-benzimidazole-6-carboxylic acid] |
| 10 | 100 | 8.3 | 98 | CC1(c2ccc(Cl)cc2F)Oc2cccc(C3CCN(Cc4nc5ccc(C(=O)O)cc5n4Cc4cnco4)CC3)c2O1 (stereo not drawn) [Example 69, 2-({4-[2-(4-chloro-2-fluorophenyl)-2-methyl-1,3-benzodioxol-4-yl]piperidin-1-yl}methyl)-1-(1,3-oxazol-5-ylmethyl)-1H-benzimidazole-6-carboxylic acid] |
| 14 | 76 | 310 | 80 | CC1(c2ccc(Cl)cc2F)Oc2cccc(C3CCN(Cc4nc5ccc(C(=O)O)cc5n4CC4(O)CCC4)CC3)c2O1 (stereo not drawn) [Example 72, 2-({4-[2-(4-chloro-2-fluorophenyl)-2-methyl-1,3-benzodioxol-4-yl]piperidin-1-yl}methyl)-1-[(1-hydroxycyclobutyl)methyl]-1H-benzimidazole-6-carboxylic acid] |
| 1.7 | 98 | 10 | 100 | CC1(c2ccc(Cl)cc2F)Oc2cccc(C3CCN(Cc4nc5ccc(C(=O)O)cc5n4Cc4cn[nH]c4)CC3)c2O1 (stereo not drawn) [Example 73, 2-({4-[2-(4-chloro-2-fluorophenyl)-2-methyl-1,3-benzodioxol-4-yl]piperidin-1-yl}methyl)-1-(1H-pyrazol-4-ylmethyl)-1H-benzimidazole-6-carboxylic acid] |
